Measurements from article PMC11062894, “Protein-based bandpass filters for controlling cellular signaling with chemical inputs” (Nature Chemical Biology, 2023).
Where “and” joins values, the source holds several entries; their conditions need not be identical. Equal values may be shown once.

Test system: GEMS receptors with CBPvene (Bcl2–LD3 and Bcl2high variants), STAT3-driven SEAP in HEK293T cells
Test: GEMS SEAP reporter assay, CBPvene (Bcl2high, LD3-v and Bcl2-v variants) with venetoclax
Type: cell-based
[1] = CBPVene-v5-Bcl2v2, Venetoclax 1000 nM
[2] = CBPVene-v5-Bcl2v2, Venetoclax 3160 nM
[3] = CBPVene-v5-Bcl2v2, Venetoclax 10000 nM
[4] = CBPVene-v5-LD3v1, Venetoclax 1 nM
[5] = CBPVene-v5-LD3v1, Venetoclax 3.16 nM
[6] = CBPVene-v5-LD3v1, Venetoclax 10 nM
[7] = CBPVene-v5-LD3v1, Venetoclax 31.6 nM
[8] = CBPVene-v5-LD3v1, Venetoclax 316 nM
[9] = CBPVene-v5-LD3v1, Venetoclax 1000 nM
[10] = CBPVene-v5-LD3v1, Venetoclax 10000 nM
[11] = Supp Fig 10a, Bcl2-v1, venetoclax 316 nM
[12] = Supp Fig 10a, Bcl2-v1, venetoclax 1000 nM
[13] = Supp Fig 10a, Bcl2-v1, venetoclax 3160 nM
[14] = Supp Fig 10a, Bcl2-v1, venetoclax 10000 nM
[15] = Supp Fig 10a, Bcl2-v2, venetoclax 316 nM
[16] = Supp Fig 10a, Bcl2-v2, venetoclax 1000 nM
[17] = Supp Fig 10a, Bcl2-v2, venetoclax 3160 nM
[18] = Supp Fig 10a, Bcl2-v2, venetoclax 10000 nM
[19] = Supp Fig 10a, Bcl2-v3, venetoclax 316 nM
[20] = Supp Fig 10a, Bcl2-v3, venetoclax 1000 nM
[21] = Supp Fig 10a, Bcl2-v3, venetoclax 3160 nM
[22] = Supp Fig 10a, Bcl2-v3, venetoclax 10000 nM
[23] = Supp Fig 10a, Bcl2-v4, venetoclax 316 nM
[24] = Supp Fig 10a, Bcl2-v4, venetoclax 1000 nM
[25] = Supp Fig 10a, Bcl2-v4, venetoclax 3160 nM
[26] = Supp Fig 10a, Bcl2-v4, venetoclax 10000 nM
[27] = Supp Fig 10a, Bcl2-v5, venetoclax 316 nM
[28] = Supp Fig 10a, Bcl2-v5, venetoclax 1000 nM
[29] = Supp Fig 10a, Bcl2-v5, venetoclax 3160 nM
[30] = Supp Fig 10a, Bcl2-v5, venetoclax 10000 nM
[31] = Supp Fig 10a, Bcl2-v6, venetoclax 316 nM
[32] = Supp Fig 10a, Bcl2-v6, venetoclax 1000 nM
[33] = Supp Fig 10a, Bcl2-v6, venetoclax 3160 nM
[34] = Supp Fig 10a, Bcl2-v6, venetoclax 10000 nM
[35] = Supp Fig 10a, Bcl2, venetoclax 316 nM
[36] = Supp Fig 10a, Bcl2, venetoclax 1000 nM
[37] = Supp Fig 10a, Bcl2, venetoclax 3160 nM
[38] = Supp Fig 10a, Bcl2, venetoclax 10000 nM
[39] = Supp Fig 10b, Bcl2-v1, venetoclax 1 nM
[40] = Supp Fig 10b, Bcl2-v1, venetoclax 3.16 nM
[41] = Supp Fig 10b, Bcl2-v1, venetoclax 10 nM
[42] = Supp Fig 10b, Bcl2-v1, venetoclax 31.6 nM
[43] = Supp Fig 10b, Bcl2-v1, venetoclax 100 nM
[44] = Supp Fig 10b, Bcl2-v1, venetoclax 316 nM
[45] = Supp Fig 10b, Bcl2-v1, venetoclax 1000 nM
[46] = Supp Fig 10b, Bcl2-v1, venetoclax 3160 nM
[47] = Supp Fig 10b, Bcl2-v1, venetoclax 10000 nM
[48] = Supp Fig 10b, Bcl2-v2, venetoclax 1 nM
[49] = Supp Fig 10b, Bcl2-v2, venetoclax 3.16 nM
[50] = Supp Fig 10b, Bcl2-v2, venetoclax 10 nM
[51] = Supp Fig 10b, Bcl2-v2, venetoclax 31.6 nM
[52] = Supp Fig 10b, Bcl2-v2, venetoclax 100 nM
[53] = Supp Fig 10b, Bcl2-v2, venetoclax 316 nM
[54] = Supp Fig 10b, Bcl2-v2, venetoclax 1000 nM
[55] = Supp Fig 10b, Bcl2-v3, venetoclax 1 nM
[56] = Supp Fig 10b, Bcl2-v3, venetoclax 3.16 nM
[57] = Supp Fig 10b, Bcl2-v3, venetoclax 10 nM
[58] = Supp Fig 10b, Bcl2-v3, venetoclax 31.6 nM
[59] = Supp Fig 10b, Bcl2-v3, venetoclax 100 nM
[60] = Supp Fig 10b, Bcl2-v3, venetoclax 316 nM
[61] = Supp Fig 10b, Bcl2-v3, venetoclax 1000 nM
[62] = Supp Fig 10b, Bcl2-v3, venetoclax 3160 nM
[63] = Supp Fig 10b, Bcl2-v3, venetoclax 10000 nM
[64] = Supp Fig 10b, Bcl2-v4, venetoclax 1 nM
[65] = Supp Fig 10b, Bcl2-v4, venetoclax 3.16 nM
[66] = Supp Fig 10b, Bcl2-v4, venetoclax 10 nM
[67] = Supp Fig 10b, Bcl2-v4, venetoclax 31.6 nM

CC1(C)CCC(CN2CCN(c3ccc(C(=O)NS(=O)(=O)c4ccc(NCC5CCOCC5)c([N+](=O)[O-])c4)c(Oc4cnc5[nH]ccc5c4)c3)CC2)=C(c2ccc(Cl)cc2)C1 [Venetoclax]
Normalized data Figure 5f [1]: 77.3797 and 77.4841 and 64.4738
Raw data Figure 5f [1]: 141.449 and 149.007 and 144.09
Normalized data Figure 5f [2]: 35.229 and 32.7238 and 23.2546
Raw data Figure 5f [2]: 64.398 and 62.9303 and 51.9708
Normalized data Figure 5f [3]: 15.1423 and 11.3283 and 13.9843
Raw data Figure 5f [3]: 27.6798 and 21.7852 and 31.253
Raw data of Independent repeat of CBPVene-v5 vs CBPVene-v5-LD3v1 (CBPVene-v5-LD3v1, Venetoclax 0.01 nM): 12.511 and 11.9088 and 12.8792
Normalized data Figure 5c [4]: 16.3682 and 15.9533 and 20.5713
Raw data Figure 5c [4]: 17.8707 and 19.0514 and 21.7836
Raw data of Independent repeat of CBPVene-v5 vs CBPVene-v5-LD3v1 [4]: 12.1852 and 11.7838 and 11.0502
Normalized data Figure 5c [5]: 15.1322 and 15.2538 and 18.8062
Raw data Figure 5c [5]: 16.5212 and 18.216 and 19.9144
Raw data of Independent repeat of CBPVene-v5 vs CBPVene-v5-LD3v1 [5]: 10.1265 and 10.196 and 11.563
Normalized data Figure 5c [6]: 22.3408 and 21.0089 and 24.5666
Raw data Figure 5c [6]: 24.3915 and 25.0888 and 26.0143
Raw data of Independent repeat of CBPVene-v5 vs CBPVene-v5-LD3v1 [6]: 13.7645 and 12.6779 and 10.7132
Normalized data Figure 5c [7]: 35.5947 and 28.4669 and 38.0182
Raw data Figure 5c [7]: 38.8619 and 33.9951 and 40.2586
Raw data of Independent repeat of CBPVene-v5 vs CBPVene-v5-LD3v1 [7]: 17.7633 and 18.8924 and 25.5
Raw data of Independent repeat of CBPVene-v5 vs CBPVene-v5-LD3v1 (CBPVene-v5-LD3v1, Venetoclax 100 nM): 38.3822 and 37.0306 and 47.6081
Normalized data Figure 5c [8]: 100
Raw data Figure 5c [8]: 109.179 and 119.42 and 105.893
Raw data of Independent repeat of CBPVene-v5 vs CBPVene-v5-LD3v1 [8]: 60.7806 and 63.7576 and 57.9589
Normalized data Figure 5c [9]: 77.7899 and 68.2523 and 65.7986
Raw data Figure 5c [9]: 84.9301 and 81.5067 and 69.6762
Raw data of Independent repeat of CBPVene-v5 vs CBPVene-v5-LD3v1 [9]: 40.6135 and 38.6218 and 45.893
Raw data of Independent repeat of CBPVene-v5 vs CBPVene-v5-LD3v1 (CBPVene-v5-LD3v1, Venetoclax 3160 nM): 20.9864 and 23.9183 and 23.9906
Normalized data Figure 5c [10]: 10.3166 and 8.27 and 9.621
Raw data Figure 5c [10]: 11.2636 and 9.876 and 10.1879
SEAP (U/L) (Figure 4h, Venetoclax 1 nM, representative data and independent repeats 1, 2 (triplicates)): 40.3558 U/L and 36.3798 U/L and 44.7796 U/L and 29.5956 U/L and 26.0853 U/L and 29.9849 U/L
SEAP [11]: 16.9918
SEAP normalized (max=100) [11]: 72.9686
SEAP [12]: 11.8168
SEAP normalized (max=100) [12]: 50.7451
SEAP [13]: 18.4889
SEAP normalized (max=100) [13]: 79.3975
SEAP [14]: 5.997
SEAP normalized (max=100) [14]: 25.7548
SEAP [15]: 33.4045
SEAP normalized (max=100) [15]: 100
SEAP [16]: 18.2725
SEAP normalized (max=100) [16]: 54.7009
SEAP [17]: 17.6043
SEAP normalized (max=100) [17]: 52.7004
SEAP [18]: 8.798
SEAP normalized (max=100) [18]: 26.337
SEAP [19]: 24.8752
SEAP normalized (max=100) [19]: 70.756
SEAP [20]: 15.674
SEAP normalized (max=100) [20]: 44.5837
SEAP [21]: 8.48
SEAP normalized (max=100) [21]: 24.1195
SEAP [22]: 5.027
SEAP normalized (max=100) [22]: 14.2997
SEAP [23]: 20.3221
SEAP normalized (max=100) [23]: 44.5121
SEAP [24]: 12.5122
SEAP normalized (max=100) [24]: 27.4059
SEAP [25]: 8.91
SEAP normalized (max=100) [25]: 19.5153
SEAP [26]: 6.178
SEAP normalized (max=100) [26]: 13.5319
SEAP [27]: 16.3938
SEAP normalized (max=100) [27]: 41.8642
SEAP [28]: 8.859
SEAP normalized (max=100) [28]: 22.6219
SEAP [29]: 8.087
SEAP normalized (max=100) [29]: 20.652
SEAP [30]: 5.778
SEAP normalized (max=100) [30]: 14.7539
SEAP [31]: 25.9953
SEAP normalized (max=100) [31]: 62.1077
SEAP [32]: 19.2478
SEAP normalized (max=100) [32]: 45.9867
SEAP [33]: 13.59
SEAP normalized (max=100) [33]: 32.4691
SEAP [34]: 7.797
SEAP normalized (max=100) [34]: 18.6277
SEAP [35]: 206.027
SEAP normalized (max=100) [35]: 100
SEAP [36]: 118.152
SEAP normalized (max=100) [36]: 57.3479
SEAP [37]: 9.9385
SEAP normalized (max=100) [37]: 4.824
SEAP [38]: 6.696
SEAP normalized (max=100) [38]: 3.25
SEAP [39]: 44.2279
SEAP normalized (max=100) [39]: 81.6306
SEAP [40]: 50.6217
SEAP normalized (max=100) [40]: 93.4314
SEAP [41]: 46.5279
SEAP normalized (max=100) [41]: 85.8756
SEAP [42]: 52.0969
SEAP normalized (max=100) [42]: 96.1542
SEAP [43]: 54.1806
SEAP normalized (max=100) [43]: 100
SEAP [44]: 42.1946
SEAP normalized (max=100) [44]: 77.8778
SEAP [45]: 16.2179
SEAP normalized (max=100) [45]: 29.933
SEAP [46]: 5.677
SEAP normalized (max=100) [46]: 10.4785
SEAP [47]: 3.434
SEAP normalized (max=100) [47]: 6.3381
SEAP [48]: 36.2682
SEAP normalized (max=100) [48]: 14.0118
SEAP [49]: 38.2081
SEAP normalized (max=100) [49]: 14.7612
SEAP [50]: 49.7513
SEAP normalized (max=100) [50]: 19.2208
SEAP [51]: 115.969
SEAP normalized (max=100) [51]: 44.8031
SEAP [52]: 258.841
SEAP normalized (max=100) [52]: 100
SEAP [53]: 180.703
SEAP normalized (max=100) [53]: 69.8126
SEAP [54]: 50.1494
SEAP normalized (max=100) [54]: 19.3746
SEAP [55]: 40.7727
SEAP normalized (max=100) [55]: 77.7639
SEAP [56]: 41.3533
SEAP normalized (max=100) [56]: 78.8713
SEAP [57]: 40.3779
SEAP normalized (max=100) [57]: 77.0109
SEAP [58]: 52.4314
SEAP normalized (max=100) [58]: 100
SEAP [59]: 43.8328
SEAP normalized (max=100) [59]: 83.6002
SEAP [60]: 28.8093
SEAP normalized (max=100) [60]: 54.9466
SEAP [61]: 14.8804
SEAP normalized (max=100) [61]: 28.3807
SEAP [62]: 13.0836
SEAP normalized (max=100) [62]: 24.9537
SEAP [63]: 6.8
SEAP normalized (max=100) [63]: 12.9702
SEAP [64]: 29.6608
SEAP normalized (max=100) [64]: 89.6354
SEAP [65]: 26.3749
SEAP normalized (max=100) [65]: 79.7051
SEAP [66]: 26.5882
SEAP normalized (max=100) [66]: 80.3497
SEAP [67]: 28.0379
SEAP normalized (max=100) [67]: 84.7308
SEAP (Supp Fig 10b, Bcl2-v4, venetoclax 100 nM): 26.0079
